According to US7250157B2, “Dermatological compositions and methods” (Applied Genetics Incorporated Dermatics, priority 1996, dated 2007):
Structures can show the parent of a compound that is named as a salt. Values belong to the compound of their own block, whether it stands above or below them.

Test system: tyrosinase activity in S91 mouse melanoma cells
Assay: Induction of tyrosinase activity in S91 cells
Conditions: for relative melanogenic potency in S91 cells (in words): Table 19 data

Fold Induction of Tyrosinase Relative to Controls (1 mM (Table 15)): 4.6X
Fold Induction of Tyrosinase Relative to Controls (5 mM (Table 15)): 12.9X
Compound: O=C(O)CC1CC2CCC1C2 (stereo not drawn) [2-norbornaneacetic acid]

Compound: Catalase [reference compound]
effect on induction of tyrosinase by 5-NBene-2,2-DM in S91 cells (in words): did not inhibit the action of 5-NBene-2,2-DM
Tyrosinase Relative to Control (500 Units Catalase/ml): 1.9X
Tyrosinase dpm/hr/ug Protein (500 Units Catalase/ml): 745 dpm/hr/ug Protein
Tyrosinase Relative to Control (1000 Units Catalase/ml): 1.7X
Tyrosinase dpm/hr/ug Protein (1000 Units Catalase/ml): 691 dpm/hr/ug Protein

Fold Induction of Tyrosinase Relative to Controls (0.5 mM (Table 19)): 9.9X
Fold Induction of Tyrosinase Relative to Controls (1 mM (Table 19)): 37.3X
Fold Induction of Tyrosinase Relative to Controls (2.5 mM (Table 19)): 99.7X
Compound: 2,3-cis & trans-bornanediol
relative melanogenic potency in S91 cells (in words): approximately twice as much melanogenic activity as (1R, 2R, 3S, 5R)-(−)-pinanediol

Compound: O=C1C(Nc2ccccc2)=CC(=O)c2ncccc21 [LY83583, 6-anilino-5,8-quinolinequinone, reference compound]
effect on induction of melanogenesis by 5-NBene-2,2-DM in S91 cells (in words): reduced induction of melanogenesis by 5-NBene-2,2-DM

Fold Induction of Tyrosinase Relative to Controls (0.5 mM (Table 19)): 5.2X
Fold Induction of Tyrosinase Relative to Controls (1 mM (Table 19)): 13.2X
Fold Induction of Tyrosinase Relative to Controls (2.5 mM (Table 19)): 21.0X
Fold Induction of Tyrosinase Relative to Controls (5 mM (Table 19)): 7.3X
Compound: C[C@@H]1CC[C@@H](C(C)(C)O)[C@H](O)C1 (relative stereo) [trans-p-menthane-3,8-diol]

Compound: OCC1(CO)CC2CCC1C2 (stereo not drawn) [NBane-2,2-DM, norbornane-2,2-dimethanol]
induction of tyrosinase in S91 cells compared with 5-NBene-2,2-DM (FIG. 2): equivalent potency

Fold Induction of Tyrosinase Relative to Controls (0.5 mM (Table 19)): 10.2X
Fold Induction of Tyrosinase Relative to Controls (1 mM (Table 19)): 28.5X
Fold Induction of Tyrosinase Relative to Controls (2.5 mM (Table 19)): 101X
Compound: CC1(C)C2CCC1(C)C(O)C2O (stereo not drawn) [2,3-cis/exo-bornanediol]
relative melanogenic potency in S91 cells (in words): more than twice as potent as 2,3-trans-bornanediol

Fold Induction of Tyrosinase Relative to Controls (0.5 mM (Table 19)): 6.2X
Fold Induction of Tyrosinase Relative to Controls (1 mM (Table 19)): 7.1X
Fold Induction of Tyrosinase Relative to Controls (2.5 mM (Table 19)): 4.7X
Compound: CC1=CC[C@@H](C(C)(C)O)CC1 [(−)-a-terpineol, (S)-p-menth-1-en-8-ol]

Fold Induction of Tyrosinase Relative to Controls (1 mM (Table 15)): 1.5X
Fold Induction of Tyrosinase Relative to Controls (2 mM (Table 15)): 3.0X
Compound: mono- & di-acetate 2,5 & 6,7-norbornanetriol

Fold Induction of Tyrosinase Relative to Controls (1 mM (Table 16)): 1.2X
Fold Induction of Tyrosinase Relative to Controls (2.5 mM (Table 16)): 1.7X
Fold Induction of Tyrosinase Relative to Controls (5 mM (Table 16)): 3.2X
Compound: OCC1CCC(CO)CC1 (stereo not drawn) [1,4-cyclohexanedimethanol]

Fold Induction of Tyrosinase Relative to Controls (1 mM (Table 19)): 14.3X
Fold Induction of Tyrosinase Relative to Controls (2.5 mM (Table 19)): 96.0X
Fold Induction of Tyrosinase Relative to Controls (5 mM (Table 19)): 36.8X
Compound: CC1(C)C2CCC(CO)[C@]1(O)C2 (stereo in doubt) [(1R)-(−)-trans-pinane-1,10-diol]
relative melanogenic potency in S91 cells (in words): almost-identical to that of (1R, 2R, 3S, 5R)-(−)-pinanediol

Fold Induction of Tyrosinase Relative to Controls (0.5 mM (Table 19)): 4.7X
Fold Induction of Tyrosinase Relative to Controls (1 mM (Table 19)): 12.8X
Fold Induction of Tyrosinase Relative to Controls (2.5 mM (Table 19)): 22.1X
Compound: CC1(C)C2CCC1(C)C(O)C2O (stereo not drawn) [2,3-trans-bornanediol]

Fold Induction of Tyrosinase Relative to Controls (1 mM (Table 16)): 1.2X
Fold Induction of Tyrosinase Relative to Controls (2.5 mM (Table 16)): 1.9X
Fold Induction of Tyrosinase Relative to Controls (5 mM (Table 16)): 1.5X
Compound: OCC(CO)(CO)CO [pentaerylthritol]

Fold Induction of Tyrosinase Relative to Controls (0.5 mM (Table 16)): 6.0X
Fold Induction of Tyrosinase Relative to Controls (1 mM (Table 16)): 8.1X
Fold Induction of Tyrosinase Relative to Controls (2.5 mM (Table 16)): 0.8X
Compound: methyl-5-norbornene-2,3-dimethanol

Fold Induction of Tyrosinase Relative to Controls (1 mM (Table 16)): 9.2X
Fold Induction of Tyrosinase Relative to Controls (2.5 mM (Table 16)): 15.5X
Fold Induction of Tyrosinase Relative to Controls (5 mM (Table 16)): 45.0X
Compound: OCC1(O)CC2CCC1C2 (stereo not drawn) [2-hydroxy-2-norbornanemethanol]

Compound: OC1CC2CCC1C2 (stereo not drawn) [α-NBane-ol, α-Norborneol]
induction of tyrosinase in S91 cells compared with 5-NBene-2,2-DM (FIG. 2): Lesser induction

Fold Induction of Tyrosinase Relative to Controls (1 mM (Table 16)): 1.4X
Fold Induction of Tyrosinase Relative to Controls (2.5 mM (Table 16)): 2.3X
Fold Induction of Tyrosinase Relative to Controls (5 mM (Table 16)): 7.0X
Compound: OCC1(CO)CC=CCC1 [3-cyclohexane-1,1-dimethanol]

Compound: CCSC(=N)N [S-EITU, S-ethylisothiourea, reference compound]
tyrosinase activity in S91 cells (in words) (1000 nM S-EITU): complete ablation of tyrosinase activity

Compound: COC(=O)[C@@]1(OC)C[C@H]2O[C@]1(C)n1c3ccccc3c3c4c(c5c6ccccc6n2c5c31)C(=O)N(C)C4 [KT5823, reference compound]
effect on induction of melanogenesis by 5-NBene-2,2-DM in S91 cells (in words): reduced induction of melanogenesis by 5-NBene-2,2-DM

Fold Induction of Tyrosinase Relative to Controls (0.5 mM (Table 19)): 0.7X
Fold Induction of Tyrosinase Relative to Controls (1 mM (Table 19)): 1.3X
Compound: CC(C)[C@H]1CC[C@H](C)C[C@@H]1O [(1S,2R,5S)-(+)-menthol, (1S,2R,5S)-2-isopropyl-5-methylcyclohexanol]

Fold Induction of Tyrosinase Relative to Controls (1 mM (Table 15)): 2.2X
Fold Induction of Tyrosinase Relative to Controls (5 mM (Table 15)): 1.0X
Compound: O=C(O)[C@@H]1[C@H](C(=O)O)[C@@H]2C=C[C@H]1C2 [5-norbornene-2,3-cis/endodicarboxylic acid]

Fold Induction of Tyrosinase Relative to Controls (1 mM (Table 16)): 0.9X
Fold Induction of Tyrosinase Relative to Controls (2.5 mM (Table 16)): 6.1X
detachment of cells from culture dishes (no tyrosinase analysis) (5 mM (Table 16)): NA^
Compound: OC[C@@H]1CCCC[C@@H]1CO [1,2-cis-cyclohexanedimethanol]

Fold Induction of Tyrosinase Relative to Controls (1 mM (Table 16)): 0.8X
Fold Induction of Tyrosinase Relative to Controls (2.5 mM (Table 16)): 1.6X
Fold Induction of Tyrosinase Relative to Controls (5 mM (Table 16)): 3.5X
Compound: OC1CC2CCC1C2O (stereo not drawn) [2,7-norbornanediol]

Compound: CC1(C)N([O])C(c2ccccc2)=[N+]([O-])C1(C)C [PTIO, 2-phenyl-4,4,5,5-tetramethylimidazoline-1-oxyl-3-oxide, reference compound]
effect on induction of melanogenesis by 5-NBene-2,2-DM in S91 cells (in words): reduced induction of melanogenesis by 5-NBene-2,2-DM

Fold Induction of Tyrosinase Relative to Controls (1 mM (Table 15)): 2.7X
Fold Induction of Tyrosinase Relative to Controls (5 mM (Table 15)): 2.3X
Compound: O=COC1CC2CCC1C2 (racemic) [± exo-2-norbornyl formate]

Fold Induction of Tyrosinase Relative to Controls (0.5 mM (Table 19)): 1.4X
Fold Induction of Tyrosinase Relative to Controls (1 mM (Table 19)): 1.1X
Fold Induction of Tyrosinase Relative to Controls (2.5 mM (Table 19)): 1.4X
Fold Induction of Tyrosinase Relative to Controls (5 mM (Table 19)): 1.2X
Compound: CC1CCC2CC1C2(C)C [(1S)-(−)-α-pinane]

Fold Induction of Tyrosinase Relative to Controls (0.5 mM (Table 19)): 13.6X
Fold Induction of Tyrosinase Relative to Controls (1 mM (Table 19)): 17.6X
Fold Induction of Tyrosinase Relative to Controls (2.5 mM (Table 19)): 2.2X
Compound: CC1(C)C2CC=C(CO)[C@@H]1C2 [(1R)-(−)-myrtenol, (1R)-2-pinen-10-ol]

Compound: Cl.Cl.O=S(=O)(NCCNCC=Cc1ccc(Br)cc1)c1cccc2cnccc12 [H-89, reference compound]
effect on induction of tyrosinase by 5-NBene-2,2-DM in S91 cells (in words): augmentation of basal and 5-NBene-2,2-DM-induced tyrosinase levels
Tyrosinase Relative to Control (1 uM H-89): 1.3X
Tyrosinase dpm/hr/ug Protein (1 uM H-89): 507 dpm/hr/ug Protein
Tyrosinase Relative to Control (10 uM H-89): 3.1X
Tyrosinase dpm/hr/ug Protein (10 uM H-89): 1236 dpm/hr/ug Protein

Fold Induction of Tyrosinase Relative to Controls (1 mM (Table 19)): 9.9X
Fold Induction of Tyrosinase Relative to Controls (2.5 mM (Table 19)): 68.4X
Fold Induction of Tyrosinase Relative to Controls (5 mM (Table 19)): 39.9X
Compound: CC1(C)[C@@H]2C[C@@H](O)[C@@](C)(O)[C@H]1C2 [(1S,2S,3R,5S)-(+)-pinanediol]

Fold Induction of Tyrosinase Relative to Controls (0.5 mM (Table 19)): 1.6X
Fold Induction of Tyrosinase Relative to Controls (1 mM (Table 19)): 3.0X
Fold Induction of Tyrosinase Relative to Controls (2.5 mM (Table 19)): 17.1X
Fold Induction of Tyrosinase Relative to Controls (5 mM (Table 19)): 11.6X
Compound: CC1CCC(C(C)(C)O)C(O)C1 (stereo not drawn) [cis-p-menthane-3,8-diol]

Fold Induction of Tyrosinase Relative to Controls (0.5 mM (Table 19)): 1.0X
Fold Induction of Tyrosinase Relative to Controls (1 mM (Table 19)): 3.0X
Fold Induction of Tyrosinase Relative to Controls (2.5 mM (Table 19)): 15.5X
Compound: CC1=C[C@H](O)[C@H]2C[C@@H]1C2(C)C (relative stereo) [(S)-cis-verbenol]

Compound: C=C(C)C1CC=C(C)CC1 (single isomer, unassigned; (+)) [R-(+)-limonene, (+)-p-mentha-1,8-diene]
relative melanogenic potency in S91 cells (in words): little or no melanogenic activity

Fold Induction of Tyrosinase Relative to Controls (0.5 mM (Table 19)): 3.7X
Fold Induction of Tyrosinase Relative to Controls (1 mM (Table 19)): 2.1X
Fold Induction of Tyrosinase Relative to Controls (2.5 mM (Table 19)): 3.7X
Compound: CC1(C)C2CCC1(C)C(O)C2 (stereo not drawn) [borneol]
relative melanogenic potency in S91 cells (in words): much less activity

Compound: OC1C2CCC(C2)C1O (stereo not drawn) [2,3-c/e-NBaneD, 2,3-cis/exo-Norbornanediol]
induction of tyrosinase in S91 cells compared with 5-NBene-2,2-DM (FIG. 2): Lesser induction

Fold Induction of Tyrosinase Relative to Controls (0.5 mM (Table 16)): 2.2X
Fold Induction of Tyrosinase Relative to Controls (1 mM (Table 16)): 4.2X
Fold Induction of Tyrosinase Relative to Controls (2.5 mM (Table 16)): 48.5X
Fold Induction of Tyrosinase Relative to Controls (5 mM (Table 16)): 2.0X
Compound: 1-(exo & endo-2-norbornyl-)-propan-1,2-diol

Fold Induction of Tyrosinase Relative to Controls (0.5 mM (Table 19)): 1.2X
Fold Induction of Tyrosinase Relative to Controls (1 mM (Table 19)): 0.8X
Fold Induction of Tyrosinase Relative to Controls (2.5 mM (Table 19)): 0.9X
Compound: CC1CCC2CC1C2(C)C [(1R)-(−)-α-pinane]

Fold Induction of Tyrosinase Relative to Controls (0.5 mM (Table 19)): 2.0X
Fold Induction of Tyrosinase Relative to Controls (1 mM (Table 19)): 1.3X
Compound: CC(C)[C@@H]1CC[C@@H](C)C[C@H]1O [(1R,2S,5R)-(−)-menthol, (1R,2S,5R)-2-isopropyl-5-methylcyclohexanol]

Fold Induction of Tyrosinase Relative to Controls (1 mM (Table 15)): 5.1X
Fold Induction of Tyrosinase Relative to Controls (2 mM (Table 15)): 5.1X
Compound: 2,5 & 6,7-norbornanetriol

Fold Induction of Tyrosinase Relative to Controls (0.5 mM (Table 19)): 2.3X
Fold Induction of Tyrosinase Relative to Controls (1 mM (Table 19)): 3.3X
detachment of cells from culture dishes (no tyrosinase analysis) (2.5 mM (Table 19)): NA^2
Compound: CC1C(O)CC2CC1C2(C)C (single isomer, unassigned; (-)) [(−)-isopinocampheol]
toxicity to S91 cells (in words) (higher concentrations tested (Table 19)): resulted in detachment of cells from culture dishes

Compound: C1CC2CCC1C2 [NBane, Norbornane]
induction of tyrosinase in S91 cells compared with 5-NBene-2,2-DM (FIG. 2): Lesser induction
induction of tyrosinase (1 or 5 mM (FIG. 2)): 2 fold
induction of tyrosinase relative to untreated or ethanol (ETOH) treated control S91 cells (FIG. 2): 2 fold

Fold Induction of Tyrosinase Relative to Controls (1 mM (Table 19)): 4.1X
Fold Induction of Tyrosinase Relative to Controls (2.5 mM (Table 19)): 37.1X
Fold Induction of Tyrosinase Relative to Controls (5 mM (Table 19)): 94.9X
Compound: CC1(C)[C@@H]2CC(=O)[C@@](C)(O)[C@H]1C2 [(1S,2S,5S,)-2-hydroxy-3-pinanone]
relative melanogenic potency in S91 cells (in words): about half as potent as (1R, 2R, 3S, 5R)-(−)-pinanediol
